pEC50, pIC50: −log10 of the molar value.
Experiments:
primary human T-cells = test: T-cell proliferation assay (CellTiter-Glo); assay type: cell-based; details: CD3 condition; for Emax proliferation (% activation): 5 days, 20 μM reference compound A1 = 100%; for pEC50: Homo sapiens, T-cell, 120 h, proliferation after 5 days, CellTiter-Glo, read-out: Tcell Proliferation CD3 EC50
[1] = biological target: DGKzeta (hDGKzeta(1-928)-N-His) (Homo sapiens (Human), UniProt Q13574); test: In vitro DGK inhibition assay, ADP-Glo (in house), DGKzeta; assay type: biochemical; details: DLG liposomes, 50 μM ATP, 2 nM enzyme, 1 hour reaction
Sequence of DGKzeta (hDGKzeta(1-928)-N-His) (Q13574 whole entry): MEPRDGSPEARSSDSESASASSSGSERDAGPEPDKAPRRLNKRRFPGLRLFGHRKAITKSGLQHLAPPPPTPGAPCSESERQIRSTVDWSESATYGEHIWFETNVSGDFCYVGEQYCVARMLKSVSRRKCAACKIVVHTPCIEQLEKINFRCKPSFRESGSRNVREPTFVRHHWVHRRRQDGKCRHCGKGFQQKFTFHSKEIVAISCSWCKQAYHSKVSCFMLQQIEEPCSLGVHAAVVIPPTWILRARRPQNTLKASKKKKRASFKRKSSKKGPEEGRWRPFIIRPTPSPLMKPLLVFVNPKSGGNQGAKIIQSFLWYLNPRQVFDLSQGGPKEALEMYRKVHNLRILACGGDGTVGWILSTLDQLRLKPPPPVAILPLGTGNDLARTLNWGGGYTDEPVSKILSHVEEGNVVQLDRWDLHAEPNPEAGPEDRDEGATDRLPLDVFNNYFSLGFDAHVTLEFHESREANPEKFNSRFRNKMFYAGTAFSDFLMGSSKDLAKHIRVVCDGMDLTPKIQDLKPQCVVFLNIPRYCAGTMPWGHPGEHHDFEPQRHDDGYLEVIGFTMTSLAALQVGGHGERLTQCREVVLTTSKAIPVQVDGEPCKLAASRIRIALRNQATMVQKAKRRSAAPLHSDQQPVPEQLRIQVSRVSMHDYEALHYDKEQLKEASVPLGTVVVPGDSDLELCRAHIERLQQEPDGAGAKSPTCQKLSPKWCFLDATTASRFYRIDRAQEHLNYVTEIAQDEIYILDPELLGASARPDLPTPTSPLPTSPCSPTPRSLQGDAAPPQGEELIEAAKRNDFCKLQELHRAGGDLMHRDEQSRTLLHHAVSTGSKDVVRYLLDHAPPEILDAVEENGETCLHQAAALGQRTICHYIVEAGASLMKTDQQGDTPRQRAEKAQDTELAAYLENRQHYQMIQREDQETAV

[2] = biological target: DGKalpha (hDGKalpha(1-735)-N-His) (Homo sapiens (Human), UniProt P23743); test: In vitro DGK inhibition assay, ADP-Glo (in house), DGKalpha; assay type: biochemical; details: DLG liposomes, 25 μM ATP, 4 nM enzyme, 1 hour reaction
Sequence of DGKalpha (hDGKalpha(1-735)-N-His) (P23743 whole entry): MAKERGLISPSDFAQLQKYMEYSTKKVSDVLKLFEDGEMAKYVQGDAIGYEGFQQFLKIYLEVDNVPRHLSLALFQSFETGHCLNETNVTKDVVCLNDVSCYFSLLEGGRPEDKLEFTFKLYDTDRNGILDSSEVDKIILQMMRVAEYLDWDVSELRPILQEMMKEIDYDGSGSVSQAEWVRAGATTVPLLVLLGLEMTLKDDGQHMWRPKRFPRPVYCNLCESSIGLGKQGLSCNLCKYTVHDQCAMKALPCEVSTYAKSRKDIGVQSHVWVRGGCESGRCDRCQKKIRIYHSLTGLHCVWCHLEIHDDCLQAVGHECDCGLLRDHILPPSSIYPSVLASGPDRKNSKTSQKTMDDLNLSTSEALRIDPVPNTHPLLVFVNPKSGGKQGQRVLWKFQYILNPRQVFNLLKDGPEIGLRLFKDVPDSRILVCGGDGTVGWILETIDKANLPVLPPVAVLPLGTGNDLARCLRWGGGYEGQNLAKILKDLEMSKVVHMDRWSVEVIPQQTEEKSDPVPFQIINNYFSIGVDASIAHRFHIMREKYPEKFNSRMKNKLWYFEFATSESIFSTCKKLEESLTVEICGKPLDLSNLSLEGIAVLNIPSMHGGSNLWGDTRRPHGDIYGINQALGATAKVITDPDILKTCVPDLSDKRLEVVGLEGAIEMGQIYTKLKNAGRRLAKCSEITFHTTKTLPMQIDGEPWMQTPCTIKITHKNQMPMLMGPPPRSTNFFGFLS

| pIC50 [1] | pIC50 [2] | Compound | Emax proliferation (% activation) (primary human T-cells) | pEC50 (primary human T-cells) |
| --- | --- | --- | --- | --- |
| 4.37 | 4.65 | CC(C)(c1cncc(-c2cc3c(cc2F)S(=O)(=O)C[C@H](N)C(=O)N3Cc2ccc(-c3noc(C(F)(F)F)n3)cc2)c1)S(C)(=O)=O [Example 25, (3R)-3-amino-8-fluoro-1,1-diketo-7-[5-(1-mesyl-1-methyl-ethyl)-3-pyridyl]-5-[4-[5-(trifluoromethyl)-1,2,4-oxadiazol-3-yl]benzyl]-2,3-dihydro-1λ6,5-benzothiazepin-4-one] | 120 | 6.28 |
|  |  | CC(C)(C)c1cnnc(-c2cc3c(cc2F)S(=O)(=O)C[C@H](N)C(=O)N3Cc2ccc(Cl)cc2)n1 [Example 11, (3R)-3-amino-7-(5-tert-butyl-1,2,4-triazin-3-yl)-5-[(4-chlorophenyl)methyl]-8-fluoro-1,1-dioxo-2,3-dihydro-1λ6,5-benzothiazepin-4-one] |  | 7.05 |
|  |  | CC(C)(C)c1cncc(-c2cc3c(cc2F)S(=O)(=O)C[C@H](N)C(=O)N3Cc2ccc(Cl)cc2)c1 [Example 2, (3R)-3-amino-7-(5-tert-butyl-3-pyridyl)-5-[(4-chlorophenyl)methyl]-8-fluoro-1,1-dioxo-2,3-dihydro-1λ6,5-benzothiazepin-4-one] |  | 7.09 |
| 5.01 | 4.76 | CC(C)(C#N)c1cncc(-c2cc3c(cc2F)S(=O)(=O)C[C@H](N)C(=O)N3Cc2ccc(-c3noc(C(F)(F)F)n3)cc2)c1 [Example 23, 2-[5-[(3R)-3-amino-8-fluoro-1,1,4-triketo-5-[4-[5-(trifluoromethyl)-1,2,4-oxadiazol-3-yl]benzyl]-2,3-dihydro-1λ6,5-benzothiazepin-7-yl]-3-pyridyl]-2-methyl-propionitrile] | 204 | 6.03 |
| 5.00 | 5.51 | COc1ccc(-c2ccc(CN3C(=O)[C@@H](N)CS(=O)(=O)c4cc(F)c(-c5cnc(C)c(C)c5)cc43)cc2)cc1 [Example 28, (3R)-3-amino-7-(5,6-dimethyl-3-pyridyl)-8-fluoro-5-[[4-(4-methoxyphenyl)phenyl]methyl]-1,1-dioxo-2,3-dihydro-1λ6,5-benzothiazepin-4-one] | 155 | 7.09 |
